Read-outs that look alike come from different tables or passages of the source. Residues, ends and D or L forms follow the SMILES beside them.
Experiments:
[1] = test system: antibodies to EBNA-1 and autoantigens; conditions: cited from earlier work
[2] = test system: rabbit anti-polypeptide antibody to polypeptide P62; experiment: Competition ELISA with rabbit anti-polypeptide P62 antibody on solid phase P62; assay type: binding; conditions: antibody first incubated with competing polypeptide
Method: (§1) Anti-peptide antibody binding and inhibition studies were carried out by an enzyme-linked immunosorbent assay (ELISA) as described below.
(§2) Contact between the wells and antigen-containing solution was maintained for a predetermined time, typically 15 minutes, and at 20 degrees C., to form an antigen-coated solid phase. The solid and liquid phases were separated and the wells were washed three times with BBS.
(§3) Rabbit and human sera (body sample aliquots) were assayed for anti-polypeptide activity by adding 100 microliters of a serum diluted 1:20 in BBS per well to form a solid/liquid phase composition. Contact between the diluted sera and the antigen-coated solid phase was maintained for a predetermined time such as 1 hour, and at 20 degrees C., for an immunoreactant to form. The solid and liquid phases were separated, and the solid phase; i.e., antigen-coated, immunoreactant-containing wells, was then washed three times with BBS.

[3] = test system: anti-EBNA antibodies (IgG, IgM, IgA)
Method: Additional assays utilized in these studies wherein IgG to IgM ratios were determined to assess the state of EBV-induced disease were carried out as described in Smith et al., J. Infect. Dis., 154:885-889 (1986) and Geltosky et al., J. Clin Lab Analysis, 1:153-162 (1987).
The solution was thereafter discarded and the plates were blocked with 300 ul of 10 percent normal goat serum in phosphate-buffered saline (PBS) at pH 7.3. After 90 minutes of maintenance (incubation) at 37 degrees C., the wells were emptied and dried for 60 minutes at 37 degrees C.
At this time, 200 ul of 10 percent goat serum in PBS were added to the wells. A volume of 10 ul of patient specimen serum was admixed to each goat serum-containing well to form a solid/liquid phase admixture. That admixture was maintained for a time period of one hour at room temperature to permit binding of any antibodies present to the solid support and form a solid phase-bound immunoreactant containing those antibodies.
After washing five times with 350 ul of 0.05% Tween-20 [polyoxyethylene (20) sorbitan monolaurate] in PBS to effect separation of the solid and liquid phases, a solution of 200 ul of horseradish peroxidase-(HRPO-) conjugated mouse monoclonal antibody to human IgG or IgM (Ortho Diagnostic Systems, Raritan, N.J.) was admixed to each well to form a second solid/liquid phase admixture. This second solid/liquid admixture was maintained for another one hour time period to permit the enzyme-linked antibodies to bind to any solid phase-bound antibodies formed in the first solid/liquid phase admixture.
After separation of the solid and liquid phases, and washing of the solid phase five times using the Tween-20/PBS solution, above, color was developed by admixture of o-phenylenediamine (OPD; 2 mg of a citrate-buffered tablet dissolved in 3 ml of water; Pitman-Moore, Washington Crossing, N.J.) and hydrogen peroxide. The resulting solution was maintained for 30 minutes at room temperature. The reaction was stopped by admixture of 50 ul of 2N HCl, and the absorbance was determined at 490 nanometers (nm).
positive control ratio =reference absorbance value/mean absorbance of positive control.
The positive control was assigned a reference absorbance value (O.D.) of 1.0. […] The absorbance value for the controls and for each test specimen were multiplied by the positive control ratio to achieve a standardized ELISA value. Cutoff values (mean OD+SD) have been previously described [Geltosky et al. J. Clin. Lab. Analysis, 1:153-162 (1987)]. […] Absorbance values less than 0.7 were considered to represent an acute infection due to EBV [Smith et al., J Infect Dis., 154:885-889 (1986)].

[4] = test system: IgM and IgG antibodies to EBNA-1 and cellular proteins of Wi-L2 cells
Method: In an alternative procedure, the cellular protein-containing extracts were loaded onto one 13-cm-wide slot of a 7.5 percent acrylamide gel and electrophoresed. The contents of the electrophoresed gel were transferred to nitrocellulose as previously described [Billings et al., Proc. Natl. Acad. Sci. USA, 80:7104-7108 (1983); Rumpold et al., J. Immunol., 138:593-599 (1987); Rhodes et al., J. Exp. Med., 165:1026-1040 (1987)]. Sera were diluted 1:20 or 1:50 in a powdered milk (PM) buffer (3 percent powered milk in 0.05 M borate, 0.15 M NaCl, pH 8.3), and contacted with the strip for 1 hour at room temperature to immunoreact antibodies in the sera with the proteins.
128:593-599 (1987); Rhodes et al., in Herpesvirus, R. Rapp ed., Alan R. Liss, New York; p. […] 154:885-889 (1986); Geltosky et al., J. Clin. Lab Analysis, 1:153-162 (1987); and Rhodes et al., J. Exp. Med., 165:1026-1040 (1987)] and bands were detected by autoradiography as described before.
Synthetic peptide inhibitions were performed by diluting the sera 1:50 in PM and adding free peptide to a final concentration of 400 ug/ml to inhibit IgM antibody and 20 to 50 ug/ml to inhibit IgG antibody. This solution was maintained (incubated) overnight at 4 degrees C. and then used to blot as described above.

anti-EBNA antibodies = experiment: ELISA with polypeptide as solid phase antigen, anti-polypeptide activity of sera (OD405); assay type: binding, human; conditions: for OD405 × 10^3 obtained with Patient Antibodies to peptide: serum 1:20
Method: Briefly, microtiter wells (Costar, #3590, Cambridge, MA) were typically coated with individual polypeptides as antigens by adding 100 microliters (ul) of BBS [10 millimoler (mM) sodium borate (pH 8.3), 150 mM NaCl] containing polypeptide at a concentration of 10 micrograms per milliliter (ug/ml). Contact between the wells and antigen-containing solution was maintained for a predetermined time, typically 15 minutes, and at 20 degrees C., to form an antigen-coated solid phase. The solid and liquid phases were separated and the wells were washed three times with BBS.
Non-specific binding sites were blocked by admixing 200 microliters of 1% bovine serum albumin (BSA) in each well to form another solid/liquid phase admixture, and maintaining that solid/liquid phase admixture for 30 minutes, at 20 degrees C. The phases were separated and excess, unbound BSA was removed by washing three times with BBS.
The antibodies in human sera that immunoreacted with an adsored polypeptide were detected using an indicating means comprising alkaline phosphatase-conjugated goat anti-human Ig antibody (Tago, Burlington, Calif.). The antibodies in rabbit sera that immunoreacted with an adsorbed polypeptide were detected using an indicating means comprising alkaline phosphatase-conjugated goat anti-rabbit Ig antibody (Kirkegard & Perry Laboratories, Inc., Gaithersburg, MD). In either instance, 100 microliters of the indicating antibody diluted 1:300 in BBS were added per well to form a further solid/liquid phase composition. This solid-liquid phase composition was maintained for a predetermined time, one hour, for the formation of a reaction product between the human antibodies bound to the solid phase and the indicating means, and at 20 degrees C. The phases were separated, and the solid phase was washed 3 times with BBS.
Alkaline phosphatase-conjugated antibody bound to polypeptide specific antibody was detected by spectrophotometrically measuring the enzymatic hydrolysis of p-nitrophenyl phosphate to p-nitrophenol. Briefly, 100 microliters of p-nitrophenyl phosphate [1 milligram per milliliter in 2 mM MgCl 2, (pH 9.8), 50 mM sodium carbonate] were added to each well. The enzymatic reaction was allowed to proceed 1 hour and then the optical density at 405 nm was determined in a [sequence] spectrophotometer available from Flow Laboratories, Inglewood, Calif.

[5] = Circular dichroism spectroscopy; assay type: physicochemical; conditions: 1 mg/ml in phosphate buffered saline
Method: The conformational properties of the polypeptides were investigated to elucidate any secondary structure that might be necessary for polypeptide immunoreaction with human anti-EBNA antibodies. The polypeptides were dissolved at a concentration of 1 mg/ml in phosphate-buffered saline (PBS). Spectra were taken using 1 ml samples in a Cary 61 spectropolarimeter (Cary Instruments, Applied Physics Corp., Monrovia, Calif.) interfaced and automated with a Digital Equipment Corporation 11/02 computer (Digital Equipment Corporation, Maynard, Mass.).

[6] = target: human anti-EBNA antibodies; experiment: ELISA: inhibition of serum antibody binding to solid phase P62 by competing polypeptide in solution
Method: as §1, §2, §3

[7] = acute IM Patient 1, 1 days post onset
[8] = acute IM Patient 1, 29 days post onset
[9] = acute IM Patient 1, 95 days post onset
[10] = acute IM Patient 1, 184 days post onset
[11] = acute IM Patient 1, 373 days post onset
[12] = acute IM Patient 2, 17 days post onset
[13] = acute IM Patient 2, 28 days post onset
[14] = acute IM Patient 2, 68 days post onset
[15] = acute IM Patient 2, 194 days post onset
[16] = acute IM Patient 2, 404 days post onset
[17] = acute IM Patient 8, 8 days post onset
[18] = acute IM Patient 8, 38 days post onset
[19] = acute IM Patient 8, 109 days post onset
[20] = acute IM Patient 8, 404 days post onset
[21] = acute IM Patient 11, 2 days post onset
[22] = acute IM Patient 11, 23 days post onset
[23] = acute IM Patient 11, 372 days post onset
[24] = acute IM Patient 11, 1,519 days post onset

Structure (SMILES): C[C@H](N)C(=O)NCC(=O)N[C@@H](C)C(=O)NCC(=O)NCC(=O)NCC(=O)N[C@@H](C)C(=O)NCC(=O)NCC(=O)N[C@@H](C)C(=O)NCC(=O)N[C@@H](C)C(=O)NCC(=O)NCC(=O)NCC(=O)N[C@@H](C)C(=O)NCC(=O)NCC(=O)N[C@@H](C)C(=O)NCC(=O)O [Polypeptide P62, H--Ala--Gly--Ala--Gly--Gly--Gly--Ala--Gly--Gly--Ala--Gly--Ala--Gly--Gly--Gly--Ala--Gly--Gly--Ala--Gly--OH] (H-AGAGGGAGGAGAGGGAGGAG-OH)
- Immunoreactivity with sera from patients with acute EBV infection [1]: most immunoreactive
- Inhibition of IgG antibodies to EBNA-1 [1]: can also be inhibited
- Inhibition of binding of anti-polypeptide P62 to polypeptide P62 in the solid phase [2]: 98%
- IgM anti-peptide P62 antibodies during acute phase of CMV disease ([3]; 10 patients with CMV-IM): All 10 patients showed a pronounced increase
- Sera positive for NPC in IgA anti-P62 assay ([3]; 13 sera from NPC patients): 10 of 13
- IgA level ([3]; Heterophil-Positive Sera marked with footnote 2 (samples 2 and 6)): > 0.300 OD 490
- IgG OD 490 [3, 7]: 0.011 OD 490
- IgM OD 490 [3, 7]: 0.189 OD 490
- Ratio IgG/IgM [3, 7]: 0.058
- IgG OD 490 [3, 8]: 0.023 OD 490
- IgM OD 490 [3, 8]: 0.527 OD 490
- Ratio IgG/IgM [3, 8]: 0.043
- IgG OD 490 [3, 9]: 0.162 OD 490
- IgM OD 490 [3, 9]: 0.329 OD 490
- Ratio IgG/IgM [3, 9]: 0.492
- IgG OD 490 [3, 10]: 0.552 OD 490
- IgM OD 490 [3, 10]: 0.245 OD 490
- Ratio IgG/IgM [3, 10]: 2.253
- IgG OD 490 [3, 11]: 0.858 OD 490
- IgM OD 490 [3, 11]: 0.152 OD 490
- Ratio IgG/IgM [3, 11]: 5.644
- IgG OD 490 [3, 12]: 0.125 OD 490
- IgM OD 490 [3, 12]: 0.682 OD 490
- Ratio IgG/IgM [3, 12]: 0.183
- IgG OD 490 [3, 13]: 0.167 OD 490
- IgM OD 490 [3, 13]: 0.674 OD 490
- Ratio IgG/IgM [3, 13]: 0.247
- IgG OD 490 [3, 14]: 0.112 OD 490
- IgM OD 490 [3, 14]: 0.459 OD 490
- Ratio IgG/IgM [3, 14]: 0.244
- IgG OD 490 [3, 15]: 0.233 OD 490
- IgM OD 490 [3, 15]: 0.596 OD 490
- Ratio IgG/IgM [3, 15]: 0.390
- IgG OD 490 [3, 16]: 0.674 OD 490
- IgM OD 490 [3, 16]: 0.665 OD 490
- Ratio IgG/IgM [3, 16]: 1.013
- IgG OD 490 [3, 17]: 0.319 OD 490
- IgM OD 490 [3, 17]: 1.046 OD 490
- Ratio IgG/IgM [3, 17]: 0.305
- IgG OD 490 [3, 18]: 0.165 OD 490
- IgM OD 490 [3, 18]: 0.696 OD 490
- Ratio IgG/IgM [3, 18]: 0.237
- IgG OD 490 [3, 19]: 0.141 OD 490
- IgM OD 490 [3, 19]: 0.603 OD 490
- Ratio IgG/IgM [3, 19]: 0.234
- IgG OD 490 [3, 20]: 1.304 OD 490
- IgM OD 490 [3, 20]: 0.562 OD 490
- Ratio IgG/IgM [3, 20]: 2.320
- IgG OD 490 [3, 21]: 0.005 OD 490
- IgM OD 490 [3, 21]: 0.055 OD 490
- Ratio IgG/IgM [3, 21]: 0.091
- IgG OD 490 [3, 22]: 0.016 OD 490
- IgM OD 490 [3, 22]: 0.702 OD 490
- Ratio IgG/IgM [3, 22]: 0.023
- IgG OD 490 [3, 23]: 0.878 OD 490
- IgM OD 490 [3, 23]: 0.643 OD 490
- Ratio IgG/IgM [3, 23]: 1.365
- IgG OD 490 [3, 24]: 1.079 OD 490
- IgM OD 490 [3, 24]: 0.199 OD 490
- Ratio IgG/IgM [3, 24]: 5.422
- IgG/IgM ratio ([3]; patient five (EBV-IM), May 1985 specimen, late convalescent phase): exceeded 0.7
- IgG/IgM ratio ([3]; patient one (CMV-IM), during the acute illness): 0.661
- IgG/IgM ratio ([3]; patient one (CMV-IM), pre-illness samples): ~2
- Patients scored positive in the EBNA P62 ELISA by the ratio analysis ([3]; ten patients with acute CMV-IM infection): eight of ten
- Inhibition of IgM antibody binding to protein bands ([4]; acute EBV-IM sera 1:50, 400 ug/ml peptide): inhibited IgM antibody binding to several protein bands
- Inhibition of IgG binding to EBNA-1 band at 77 kD ([4]; convalescent and normal sera, 50 ug/ml peptide): inhibited by the peptide in all cases
- Inhibition of IgM reactivities with 82-77 kD and 58 to 62 kD bands ([4]; patient four. 12 days after onset of CMV illness, 400 ug/ml peptide): inhibited
- Reactivity of sera of EBV non-immune donors to polypeptide (anti-EBNA antibodies; 27 EBV non-immune (VCA-) donors): None of the sera displayed significant reactivity
- Number of anti-EBNA positive sera positive against (bound to) polypeptide (anti-EBNA antibodies; 91 ACIF anti-EBNA positive sera, 1:20 dilution): 91
- Number of EBNA positive sera that immunoreacted with polypeptide (anti-EBNA antibodies; 91 EBNA positive sera, dilution 1:320): 83
- Titer of PSS patients versus normals (anti-EBNA antibodies; Progressive Systemic Schlerosis patients): relatively higher average titer
- Reaction of VCA+ sera with polypeptide (anti-EBNA antibodies; clinically normal VCA+ individuals, two dilutions): all of the VCA^+ individuals were positive
- Reaction of VCA- sera with polypeptide (anti-EBNA antibodies; panel of 19 VCA- sera): None of the VCA^- sera were found to react positively
- OD405 × 10^3 obtained with Patient Antibodies to peptide (anti-EBNA antibodies; MV post-mononucleosis): 631 OD405 × 10^3
- OD405 × 10^3 obtained with Patient Antibodies to peptide (anti-EBNA antibodies; MV pre-mononucleosis): 77 OD405 × 10^3
- OD405 × 10^3 obtained with Patient Antibodies to peptide (anti-EBNA antibodies; SB post-mononucleosis): 514 OD405 × 10^3
- OD405 × 10^3 obtained with Patient Antibodies to peptide (anti-EBNA antibodies; SB pre-mononucleosis): 13 OD405 × 10^3
- OD405 × 10^3 obtained with Patient Antibodies to peptide (anti-EBNA antibodies; VCA+ Normal 1): 958 OD405 × 10^3
- OD405 × 10^3 obtained with Patient Antibodies to peptide (anti-EBNA antibodies; VCA+ Normal 2): 819 OD405 × 10^3
- Conformation by circular dichroism spectrum [5]: relatively stable secondary structure
- Concentration of Competing Polypeptides Providing 50% Inhibition of Antibody Binding to Peptide P62 ([6]; serum N6): 0.6 micrograms per milliliter
- Concentration of Competing Polypeptides Providing 50% Inhibition of Antibody Binding to Peptide P62 ([6]; serum TJ): 0.05 micrograms per milliliter
- Concentration of Competing Polypeptides Providing 50% Inhibition of Antibody Binding to Peptide P62 ([6]; serum VM): 0.3 micrograms per milliliter

— US5122448A, “Assay of anti-Epstein-Barr virus nuclear antigen antibodies with synthetic polypeptides” (Scripps Clinic and Research Foundation, priority 1990, dated 1992)
